Columns and labels:
Assay in all cases: Biomarker study proliferation (CellTiter-Glo)
Type in all cases: cell-based
UACC812 = system: UACC812
Procedure: (§1) Cancer cell lines are profiled to evaluate the anti-proliferative activity of a test compound in-vitro. Mutation, copy number and gene expression information of ARID1A, KMT2C, KMT2D and/or RB1 genes across cancer cell lines is obtained from COSMIC database (cancer.sanger.ac.uk) and cBioportal (http://www.cbioportal.org/). Cells are cultured in growth medium and plated into a 96-well plate in 100 μL/well growth medium at 5000 cells/well then incubated at 37° C., 5% CO2 overnight. Cells are cultured using supplier recommended media and conditions well known in the art, for example with RPMI 1640 with or without HEPES & L-Glutamine (Thermo SH30255.01) and 1 mM Sodium Pyruvate, and 10% FBS(Gibco cat #10082). The 1000× intermediate dilution plate is prepared by making a 10 mM working solution of a test sample in DMSO and performing 1:3 dilutions in DMSO for 10 points. The 10× dosing plate is prepared by adding 2 μL from the 1000× intermediate dilution plate to 198 μL of OPTIMEM®+10% FBS and mixing well. The cell plate is then treated by adding 11 μL from the 10× dosing plate into the 100 μL/well cell plate for a 1× final concentration. Staurosporine is used as a maximum growth inhibition control at a final concentration of 5 μM. The cell plate is incubated for 7 days at 37° C., 5% CO2. Seven days after treatment, Cell Titer-Glo® (Promega cat #G7571) assay buffer and substrate are removed from −20° C. and allowed to equilibrate to RT. Assay buffer is added to the substrate and swirled gently to mix. The CELL TITER-GLO® reagent (100 μL/well) is added to the cell plate and incubated at RT for 15 minutes. After 15 minutes, luminescence is read using a plate reader. Data is analyzed in Excel and graphed in GraphPad Prism. Statistical analysis and p value is calculated using Mann-Whitney nonparameteric t tests using GraphPad Prism.
(§2) Anti-proliferative effects of a test compound are categorized as insensitive (IC50≥1 μM), cytostatic (IC50<1 μM and % inhibition <70%) or cytotoxic (IC50<1 μM and % inhibition ≥70%).

NCIH209 = system: NCIH209
Procedure: as §1, §2

NCIH522 = system: NCIH522
Procedure: as §1, §2

NUGC3 = system: NUGC3
Procedure: as §1, §2

SNU16 = system: SNU16
Procedure: as §1, §2

TYKNU = system: TYKNU
Procedure: as §1, §2

A673 = system: A673
Procedure: as §1, §2

HUH28 = system: HUH28
Procedure: as §1, §2

HUH1 = system: HUH1
Procedure: as §1, §2

COLO320 = system: COLO320
Procedure: as §1, §2

OAW42 = system: OAW42
Procedure: as §1, §2

CORL88 = system: CORL88
Procedure: as §1, §2

BT20 = system: BT20
Procedure: as §1, §2

OCUM1 = system: OCUM1
Procedure: as §1, §2

HCC1569 = system: HCC1569
Procedure: as §1, §2

KYSE150 = system: KYSE150
Procedure: as §1, §2

Karpas1106 = system: Karpas1106
Procedure: as §1, §2

NCIH446 = system: NCIH446
Procedure: as §1, §2

NCIH1092 = system: NCIH1092
Procedure: as §1, §2

[1] = 168 h, read-out: Anti-proliferation effect IC50

Cc1cc(NC2CCN(C(=O)O[C@H]3CCN(C(=O)/C=C/CN(C)C)C3)CC2)n2ncc(C(C)C)c2n1 [Example 1, [(3S)-1-[(E)-4-(dimethylamino)but-2-enoyl]pyrrolidin-3-yl] 4-[(3-isopropyl-5-methyl-pyrazolo[1,5-a]pyrimidin-7-yl)amino]piperidine-1-carboxylate]
IC50 (UACC812; Homo sapiens, UACC-812, 168 h, read-out: Anti-proliferation effect IC50): 0.076 µM
Anti-proliferation effect % Inh. (UACC812; UACC812, BREAST, 7 days): 58%
Anti-proliferation effect Outcome (UACC812; UACC812, BREAST, 7 days): Cytostatic (cytostatic (IC50<1 μM and % inhibition <70%))
IC50 (NCIH209; Homo sapiens, NCI-H209, 168 h, read-out: Anti-proliferation effect IC50): 0.04 µM
Anti-proliferation effect % Inh. (NCIH209; NCIH209, LUNG, 7 days): 83%
Anti-proliferation effect Outcome (NCIH209; NCIH209, LUNG, 7 days): Cytotoxic (cytotoxic (IC50<1 μM and % inhibition ≥70%))
IC50 (NCIH522; Homo sapiens, NCI-H522, 168 h, read-out: Anti-proliferation effect IC50): 0.107 µM
Anti-proliferation effect % Inh. (NCIH522; NCIH522, LUNG, 7 days): 50%
Anti-proliferation effect Outcome (NCIH522; NCIH522, LUNG, 7 days): Cytostatic (cytostatic (IC50<1 μM and % inhibition <70%))
IC50 (NUGC3; Homo sapiens, NUGC-3, 168 h, read-out: Anti-proliferation effect IC50): 0.03 µM
Anti-proliferation effect % Inh. (NUGC3; NUGC3, STOMACH, 7 days): 81%
Anti-proliferation effect Outcome (NUGC3; NUGC3, STOMACH, 7 days): Cytotoxic (cytotoxic (IC50<1 μM and % inhibition ≥70%))
IC50 (SNU16; Homo sapiens, SNU-16, 168 h, read-out: Anti-proliferation effect IC50): 0.017 µM
Anti-proliferation effect % Inh. (SNU16; SNU16, STOMACH, 7 days): 84%
Anti-proliferation effect Outcome (SNU16; SNU16, STOMACH, 7 days): Cytotoxic (cytotoxic (IC50<1 μM and % inhibition ≥70%))
IC50 (TYKNU; [1]): 0.072 µM
Anti-proliferation effect % Inh. (TYKNU; TYKNU, OVARY, 7 days): 83%
Anti-proliferation effect Outcome (TYKNU; TYKNU, OVARY, 7 days): Cytotoxic (cytotoxic (IC50<1 μM and % inhibition ≥70%))
Anti-proliferation effect % Inh. (A673; A673, BONE, 7 days): 96%
Anti-proliferation effect Outcome (A673; A673, BONE, 7 days): Cytotoxic (cytotoxic (IC50<1 μM and % inhibition ≥70%))
IC50 (A673; Homo sapiens, A673, 168 h, read-out: Anti-proliferation effect IC50): 0.014 µM
IC50 (HUH28; [1]): 2.9 µM
Anti-proliferation effect % Inh. (HUH28; HUH28, BILIARY, 7 days): 32%
Anti-proliferation effect Outcome (HUH28; HUH28, BILIARY, 7 days): Insensitive (insensitive (IC50≥1 μM))
Anti-proliferation effect % Inh. (HUH1; HUH1, LIVER, 7 days): 72%
Anti-proliferation effect Outcome (HUH1; HUH1, LIVER, 7 days): Cytotoxic (cytotoxic (IC50<1 μM and % inhibition ≥70%))
IC50 (HUH1; Homo sapiens, HuH-1, 168 h, read-out: Anti-proliferation effect IC50): 0.128 µM
Anti-proliferation effect % Inh. (COLO320; COLO320, INTESTINE, 7 days): 73%
Anti-proliferation effect Outcome (COLO320; COLO320, INTESTINE, 7 days): Cytotoxic (cytotoxic (IC50<1 μM and % inhibition ≥70%))
IC50 (COLO320; Homo sapiens, COLO 320, 168 h, read-out: Anti-proliferation effect IC50): 0.189 µM
IC50 (OAW42; Homo sapiens, OAW-42, 168 h, read-out: Anti-proliferation effect IC50): 0.136 µM
Anti-proliferation effect % Inh. (OAW42; OAW42, OVARY, 7 days): 88%
Anti-proliferation effect Outcome (OAW42; OAW42, OVARY, 7 days): Cytotoxic (cytotoxic (IC50<1 μM and % inhibition ≥70%))
Anti-proliferation effect % Inh. (CORL88; CORL88, LUNG, 7 days): 34%
Anti-proliferation effect Outcome (CORL88; CORL88, LUNG, 7 days): Insensitive (insensitive (IC50≥1 μM))
IC50 (CORL88; Homo sapiens, COR-L88, 168 h, read-out: Anti-proliferation effect IC50): 4.2 µM
Anti-proliferation effect % Inh. (BT20; BT20, BREAST, 7 days): 45%
Anti-proliferation effect Outcome (BT20; BT20, BREAST, 7 days): Cytostatic (cytostatic (IC50<1 μM and % inhibition <70%))
IC50 (BT20; Homo sapiens, BT-20, 168 h, read-out: Anti-proliferation effect IC50): 0.373 µM
IC50 (OCUM1; OCUM1, 168 h, read-out: Anti-proliferation effect IC50): 0.027 µM
Anti-proliferation effect % Inh. (OCUM1; OCUM1, STOMACH, 7 days): 82%
Anti-proliferation effect Outcome (OCUM1; OCUM1, STOMACH, 7 days): Cytotoxic (cytotoxic (IC50<1 μM and % inhibition ≥70%))
Anti-proliferation effect % Inh. (HCC1569; HCC1569, BREAST, 7 days): 45%
Anti-proliferation effect Outcome (HCC1569; HCC1569, BREAST, 7 days): Cytostatic (cytostatic (IC50<1 μM and % inhibition <70%))
IC50 (HCC1569; Homo sapiens, HCC1569, 168 h, read-out: Anti-proliferation effect IC50): 0.067 µM
IC50 (KYSE150; Homo sapiens, KYSE-150, 168 h, read-out: Anti-proliferation effect IC50): 0.042 µM
Anti-proliferation effect % Inh. (KYSE150; KYSE150, OESOPHAGUS, 7 days): 64%
Anti-proliferation effect Outcome (KYSE150; KYSE150, OESOPHAGUS, 7 days): Cytostatic (cytostatic (IC50<1 μM and % inhibition <70%))
IC50 (Karpas1106; [1]): 0.026 µM
Anti-proliferation effect % Inh. (Karpas1106; Karpas1106, BLOOD, 7 days): 98%
Anti-proliferation effect Outcome (Karpas1106; Karpas1106, BLOOD, 7 days): Cytotoxic (cytotoxic (IC50<1 μM and % inhibition ≥70%))
IC50 (NCIH446; Homo sapiens, NCI-H446, 168 h, read-out: Anti-proliferation effect IC50): 0.013 µM
Anti-proliferation effect % Inh. (NCIH446; NCIH446, LUNG, 7 days): 95%
Anti-proliferation effect Outcome (NCIH446; NCIH446, LUNG, 7 days): Cytotoxic (cytotoxic (IC50<1 μM and % inhibition ≥70%))
IC50 (NCIH1092; Homo sapiens, NCI-H1092, 168 h, read-out: Anti-proliferation effect IC50): 0.683 µM
Anti-proliferation effect % Inh. (NCIH1092; NCIH1092, LUNG, 7 days): 42%
Anti-proliferation effect Outcome (NCIH1092; NCIH1092, LUNG, 7 days): Cytostatic (cytostatic (IC50<1 μM and % inhibition <70%))
